Laboratory results from ChEMBL document CHEMBL3832085.

Assay: clinical
Conditions: human, in vivo, topical or ocular, 46.1 mg

AUC (AUC(0 to inf)): 61.3 ng·h/mL
Cmax (Cmax): 27.2 ng/mL
Tmax (Tmax): 45 min
Compound: CCN(CC)CC(=O)Nc1c(C)cccc1C [LIDOCAINE]
